# Results reported in patent publication US11325889B2, “Substituted 3-((3-aminophenyl)amino)piperidine-2,6-dione compounds, compositions thereof, and methods of treatment therewith” (Celgene Corporation, priority 2018, dated 2022).
# Target: T1, AR protein in VCaP cells (Homo sapiens, UniProt P10275)
# T1 construct: endogenous in cells; host or cells: VCaP cells
# T1 sequence (P10275 1-920): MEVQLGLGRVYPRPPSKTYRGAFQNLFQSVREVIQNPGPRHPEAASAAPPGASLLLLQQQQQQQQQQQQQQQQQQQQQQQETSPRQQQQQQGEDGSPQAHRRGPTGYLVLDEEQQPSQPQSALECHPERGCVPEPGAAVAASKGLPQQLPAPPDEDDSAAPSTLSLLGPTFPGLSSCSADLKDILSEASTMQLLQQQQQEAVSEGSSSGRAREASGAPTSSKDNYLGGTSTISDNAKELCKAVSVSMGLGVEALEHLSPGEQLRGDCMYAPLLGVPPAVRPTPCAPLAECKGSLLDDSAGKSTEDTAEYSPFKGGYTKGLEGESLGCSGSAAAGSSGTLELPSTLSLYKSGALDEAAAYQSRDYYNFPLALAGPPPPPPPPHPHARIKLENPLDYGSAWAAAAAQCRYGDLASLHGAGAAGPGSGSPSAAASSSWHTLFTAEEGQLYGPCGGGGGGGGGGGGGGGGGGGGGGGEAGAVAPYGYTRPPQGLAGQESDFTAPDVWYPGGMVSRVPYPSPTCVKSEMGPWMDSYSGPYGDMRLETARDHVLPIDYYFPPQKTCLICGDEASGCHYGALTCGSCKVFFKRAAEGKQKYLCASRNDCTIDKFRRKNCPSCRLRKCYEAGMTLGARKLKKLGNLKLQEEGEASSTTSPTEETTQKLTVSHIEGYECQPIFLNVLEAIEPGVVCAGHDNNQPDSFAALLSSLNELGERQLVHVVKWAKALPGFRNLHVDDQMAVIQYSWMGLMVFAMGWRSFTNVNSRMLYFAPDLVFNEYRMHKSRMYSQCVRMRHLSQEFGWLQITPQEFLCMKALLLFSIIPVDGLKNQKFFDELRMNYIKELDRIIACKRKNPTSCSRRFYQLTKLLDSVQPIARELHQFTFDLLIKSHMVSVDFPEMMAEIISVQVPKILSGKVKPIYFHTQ
# Assay: VCAP AR Degradation Assay (AR ELISA, 24 h)
# Type: cell-based
# Conditions: for Y (lowest measured AR level normalized to DMSO control): AR degradation efficiency; for DC50: concentration of compound when AR level = 50% of DMSO control, read-out: DC50
# In short: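 VCaP cells in DMEM with 8% FBS exposed for 24 h at 37° C to a 10-point, 1:3 series (final top concentration […]; 0.1% DMSO control). Lysate AR measured by sandwich ELISA and normalized to DMSO as percent of control. DC50, EC50 and lowest AR level (Y) from four-parameter logistic fit.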
Compound,Y (lowest measured AR level normalized to DMSO control),DC50
"CC1(C)C(=O)N(c2ccc(C#N)c(C(F)(F)F)c2)C(=S)N1c1ccc(OCC2CCN(CC(=O)Nc3cccc(NC4CCC(=O)NC4=O)c3)CC2)c(F)c1 (stereo not shown) [Cmpd 2, 2-(4-((4-(3-(4-cyano-3-(trifluoromethyl)phenyl)-5,5-dimethyl-4-oxo-2-thioxoimidazolidin-1-yl)-2-fluorophenoxy)methyl)piperidin-1-yl)-N-(3-(2,6-dioxopiperidin-3-ylamino)phenyl)acetamide]",** (25%<Y<=35%),100 to 500 nM
"CCc1cc(N2C(=S)N(c3ccc(C#N)c(C(F)(F)F)c3)C(=O)C23CCC3)ccc1OCCC1CCN(CC(=O)Nc2cccc(NC3CCC(=O)NC3=O)c2)CC1 (stereo not shown) [Cmpd 43, 2-(4-(2-(4-(7-(4-cyano-3-(trifluoromethyl)phenyl)-8-oxo-6-thioxo-5,7-diazaspiro[3.4]octan-5-yl)-2-ethylphenoxy)ethyl)piperidin-1-yl)-N-(3-(2,6-dioxopiperidin-3-ylamino)phenyl)acetamide]",* (0<Y<=25%),< 100 nM
"CC1(C)C(=O)N(c2ccc(C#N)c(C(F)(F)F)c2)C(=S)N1c1ccc(OCCC2CCN(CC(=O)Nc3cc(Cl)cc(NC4CCC(=O)NC4=O)c3)CC2)c(CCF)c1 (stereo not shown) [Cmpd 33, N-(3-chloro-5-(2,6-dioxopiperidin-3-ylamino)phenyl)-2-(4-(2-(4-(3-(4-cyano-3-(trifluoromethyl)phenyl)-5,5-dimethyl-4-oxo-2-thioxoimidazolidin-1-yl)-2-(2-fluoroethyl)phenoxy)ethyl)piperidin-1-yl)acetamide]",* (0<Y<=25%),< 100 nM
"CCc1cc(N2C(=S)N(c3cnc(C#N)c(C(F)(F)F)c3)C(=O)C2(C)C)ccc1OCC[C@@H]1CCN(CC(=O)Nc2cccc(NC3CCC(=O)NC3=O)c2)[C@H](C)C1 (stereo partly drawn) [Cmpd 78, 2-((2R,4R)-4-(2-(4-(3-(6-cyano-5-(trifluoromethyl)pyridin-3-yl)-5,5-dimethyl-4-oxo-2-thioxoimidazolidin-1-yl)-2-ethylphenoxy)ethyl)-2-methylpiperidin-1-yl)-N-(3-(2,6-dioxopiperidin-3-ylamino)phenyl)acetamide]",* (0<Y<=25%),< 100 nM
"CC1(C)C(=O)N(c2ccc(C#N)c(C(F)(F)F)c2)C(=S)N1c1ccc(OCCC2CCN(CC(=O)Nc3cc(Cl)cc(NC4CCC(=O)NC4=O)c3)CC2)c(F)c1 (stereo not shown) [Cmpd 10, N-(3-chloro-5-(2,6-dioxopiperidin-3-ylamino)phenyl)-2-(4-(2-(4-(3-(4-cyano-3-(trifluoromethyl)phenyl)-5,5-dimethyl-4-oxo-2-thioxoimidazolidin-1-yl)-2-fluorophenoxy)ethyl)piperidin-1-yl)acetamide]",** (25%<Y<=35%),100 to 500 nM
"CCc1cc(N2C(=S)N(c3cnc(C#N)c(C(F)(F)F)c3)C(=O)C2(C)C)ccc1OCCC1CCN([C@@H](C)C(=O)Nc2cc(Cl)cc(NC3CCC(=O)NC3=O)c2)CC1 (stereo partly drawn) [Cmpd 23, (2S)-N-(3-chloro-5-(2,6-dioxopiperidin-3-ylamino)phenyl)-2-(4-(2-(4-(3-(6-cyano-5-(trifluoromethyl)pyridin-3-yl)-5,5-dimethyl-4-oxo-2-thioxoimidazolidin-1-yl)-2-ethylphenoxy)ethyl)piperidin-1-yl)propanamide]",* (0<Y<=25%),< 100 nM
"CCc1cc(N2C(=S)N(c3ccc(C#N)c(C(F)(F)F)c3)C(=O)C2(C)C)ccc1OCCC1CCN(CC(=O)Nc2cc(Cl)cc(NC3CCC(=O)NC3=O)c2)CC1 (stereo not shown) [Cmpd 20, N-(3-chloro-5-(2,6-dioxopiperidin-3-ylamino)phenyl)-2-(4-(2-(4-(3-(4-cyano-3-(trifluoromethyl)phenyl)-5,5-dimethyl-4-oxo-2-thioxoimidazolidin-1-yl)-2-ethylphenoxy)ethyl)piperidin-1-yl)acetamide]",* (0<Y<=25%),< 100 nM
"CCc1cc(N2C(=S)N(c3ccc(C#N)c(C(F)(F)F)c3)C(=O)C2(C)C)ccc1OCCC1(F)CCN(CC(=O)Nc2cc(Cl)cc(NC3CCC(=O)NC3=O)c2)CC1 (stereo not shown) [Cmpd 90, N-(3-chloro-5-(2,6-dioxopiperidin-3-ylamino)phenyl)-2-(4-(2-(4-(3-(4-cyano-3-(trifluoromethyl)phenyl)-5,5-dimethyl-4-oxo-2-thioxoimidazolidin-1-yl)-2-ethylphenoxy)ethyl)-4-fluoropiperidin-1-yl)acetamide]",* (0<Y<=25%),< 100 nM
"CC(C)c1cc(N2C(=S)N(c3ccc(C#N)c(C(F)(F)F)c3)C(=O)C2(C)C)ccc1OCC[C@@H]1CCN(CC(=O)Nc2cccc(NC3CCC(=O)NC3=O)c2)[C@H](C)C1 (stereo partly drawn) [Cmpd 91, 2-((2R,4R)-4-(2-(4-(3-(4-cyano-3-(trifluoromethyl)phenyl)-5,5-dimethyl-4-oxo-2-thioxoimidazolidin-1-yl)-2-isopropylphenoxy)ethyl)-2-methylpiperidin-1-yl)-N-(3-(2,6-dioxopiperidin-3-ylamino)phenyl)acetamide]",** (25%<Y<=35%),500 to 1000 nM
"C[C@H](C(=O)Nc1cccc(NC2CCC(=O)NC2=O)c1)N1CCC(CCOc2ccc(N3C(=S)N(c4cnc(C#N)c(C(F)(F)F)c4)C(=O)C3(C)C)cc2CCF)CC1 (stereo partly drawn) [Cmpd 72, (2R)-2-(4-(2-(4-(3-(6-cyano-5-(trifluoromethyl)pyridin-3-yl)-5,5-dimethyl-4-oxo-2-thioxoimidazolidin-1-yl)-2-(2-fluoroethyl)phenoxy)ethyl)piperidin-1-yl)-N-(3-(2,6-dioxopiperidin-3-ylamino)phenyl)propanamide]",* (0<Y<=25%),< 100 nM
"CCc1cc(N2C(=S)N(c3cnc(C#N)c(C(F)(F)F)c3)C(=O)C2(C)C)ccc1OCCC1CCN(CC(=O)Nc2cc(Cl)cc(NC3CCC(=O)NC3=O)c2)CC1 (stereo not shown) [Cmpd 13, N-(3-chloro-5-(2,6-dioxopiperidin-3-ylamino)phenyl)-2-(4-(2-(4-(3-(6-cyano-5-(trifluoromethyl)pyridin-3-yl)-5,5-dimethyl-4-oxo-2-thioxoimidazolidin-1-yl)-2-ethylphenoxy)ethyl)piperidin-1-yl)acetamide]",* (0<Y<=25%),< 100 nM
